Test results: PubChem BioAssay (NCI)
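1) Cells in 96-well plates. 2) Compound, 48 h, 5 concentrations. 3) Linear interpolation between surrounding doses. 4) Unreached endpoint = highest concentration. The concentration for full growth arrest is given as TGI.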

What was measured:
Test in all cases: inhibition of tumour cell growth, NCI panel, 48 h
HOP-92 NSCLC = tested on: HOP-92 NSCLC
A498 renal = tested on: A498 renal
HCC-2998 colon = tested on: HCC-2998 colon
SK-MEL-28 melanoma = tested on: SK-MEL-28 melanoma
NCI/ADR-RES ovarian = tested on: NCI/ADR-RES ovarian
PC-3 prostate = tested on: PC-3 prostate
HT29 colon = tested on: HT29 colon
KM12 colon = tested on: KM12 colon
MALME-3M melanoma = tested on: MALME-3M melanoma
786-0 renal = tested on: 786-0 renal
MDA-MB-231 breast = tested on: MDA-MB-231 breast
MOLT-4 leukemia = tested on: MOLT-4 leukemia
DU-145 prostate = tested on: DU-145 prostate
MCF7 breast = tested on: MCF7 breast
IGROV1 ovarian = tested on: IGROV1 ovarian
RXF 393 renal = tested on: RXF 393 renal
OVCAR-5 ovarian = tested on: OVCAR-5 ovarian
HOP-62 NSCLC = tested on: HOP-62 NSCLC
SF-295 CNS = tested on: SF-295 CNS
UACC-62 melanoma = tested on: UACC-62 melanoma
MDA-MB-435 = tested on: MDA-MB-435
RPMI-8226 leukemia = tested on: RPMI-8226 leukemia
HL-60(TB) leukemia = tested on: HL-60(TB) leukemia
LOX IMVI melanoma = tested on: LOX IMVI melanoma
SF-539 CNS = tested on: SF-539 CNS
TK-10 renal = tested on: TK-10 renal
COLO 205 colon = tested on: COLO 205 colon
U251 CNS = tested on: U251 CNS
SW-620 colon = tested on: SW-620 colon
NCI-H23 lung = tested on: NCI-H23 lung
SK-OV-3 ovarian = tested on: SK-OV-3 ovarian
HCT-116 colon = tested on: HCT-116 colon
OVCAR-8 ovarian = tested on: OVCAR-8 ovarian
OVCAR-4 ovarian = tested on: OVCAR-4 ovarian
ACHN renal = tested on: ACHN renal
K-562 leukemia = tested on: K-562 leukemia
NCI-H226 lung = tested on: NCI-H226 lung
UO-31 renal = tested on: UO-31 renal
OVCAR-3 ovarian = tested on: OVCAR-3 ovarian
MDA-N = tested on: MDA-N
EKVX NSCLC = tested on: EKVX NSCLC
CAKI-1 renal = tested on: CAKI-1 renal
CCRF-CEM leukemia = tested on: CCRF-CEM leukemia
NCI-H460 lung = tested on: NCI-H460 lung
SN12C renal = tested on: SN12C renal
M14 melanoma = tested on: M14 melanoma
A549 NSCLC = tested on: A549 NSCLC
UACC-257 melanoma = tested on: UACC-257 melanoma
SNB-75 CNS = tested on: SNB-75 CNS
SR leukemia = tested on: SR leukemia
SF-268 CNS = tested on: SF-268 CNS
HS 578T breast = tested on: HS 578T breast
HCT-15 colon = tested on: HCT-15 colon
SK-MEL-5 melanoma = tested on: SK-MEL-5 melanoma
T-47D breast = tested on: T-47D breast
SNB-19 CNS = tested on: SNB-19 CNS
SK-MEL-2 melanoma = tested on: SK-MEL-2 melanoma
NCI-H522 lung = tested on: NCI-H522 lung

Structure (SMILES): CC(C)=CCc1ccc2[nH]c3c(c2c1)C(=O)C(=O)C(C)=C3C(O)C(C)O (centres undefined)
- TGI (HOP-92 NSCLC): 3.51 µM
- TGI (A498 renal): 25.8 µM
- TGI (HCC-2998 colon): 14.8 µM
- TGI (SK-MEL-28 melanoma): 28.1 µM
- TGI (NCI/ADR-RES ovarian): > 85.4 µM
- TGI (PC-3 prostate): 43.4 µM
- TGI (HT29 colon): 35.1 µM
- TGI (KM12 colon): 30.1 µM
- TGI (MALME-3M melanoma): 3.37 µM
- TGI (786-0 renal): 3.27 µM
- TGI (MDA-MB-231 breast): 15.8 µM
- TGI (MOLT-4 leukemia): 4.83 µM
- TGI (DU-145 prostate): 22.4 µM
- TGI (MCF7 breast): 3.4 µM
- TGI (IGROV1 ovarian): 7.2 µM
- TGI (RXF 393 renal): 4.68 µM
- TGI (OVCAR-5 ovarian): 34.2 µM
- TGI (HOP-62 NSCLC): 37.8 µM
- TGI (SF-295 CNS): 25 µM
- TGI (UACC-62 melanoma): 11.6 µM
- TGI (MDA-MB-435): 9.57 µM
- TGI (RPMI-8226 leukemia): 6.17 µM
- TGI (HL-60(TB) leukemia): 2.53 µM
- TGI (LOX IMVI melanoma): 4.73 µM
- TGI (SF-539 CNS): 34 µM
- TGI (TK-10 renal): 4.76 µM
- TGI (COLO 205 colon): 4.89 µM
- TGI (U251 CNS): 13.2 µM
- TGI (SW-620 colon): 4.7 µM
- TGI (NCI-H23 lung): 31.8 µM
- TGI (SK-OV-3 ovarian): 29.7 µM
- TGI (HCT-116 colon): 3.43 µM
- TGI (OVCAR-8 ovarian): 3.91 µM
- TGI (OVCAR-4 ovarian): 13.2 µM
- TGI (ACHN renal): 11.5 µM
- TGI (K-562 leukemia): 5.78 µM
- TGI (NCI-H226 lung): 34.2 µM
- TGI (UO-31 renal): 2.96 µM
- TGI (OVCAR-3 ovarian): 13 µM
- TGI (MDA-N): 19.7 µM
- TGI (EKVX NSCLC): 30.1 µM
- TGI (CAKI-1 renal): 11.5 µM
- TGI (CCRF-CEM leukemia): 4.98 µM
- TGI (NCI-H460 lung): 37.2 µM
- TGI (SN12C renal): 45.8 µM
- TGI (M14 melanoma): 3.9 µM
- TGI (A549 NSCLC): 56.5 µM
- TGI (UACC-257 melanoma): 3.71 µM
- TGI (SNB-75 CNS): 34.1 µM
- TGI (SR leukemia): 12.4 µM
- TGI (SF-268 CNS): 25 µM
- TGI (HS 578T breast): 50.1 µM
- TGI (HCT-15 colon): 16.3 µM
- TGI (SK-MEL-5 melanoma): 7.22 µM
- TGI (T-47D breast): 6.11 µM
- TGI (SNB-19 CNS): 31 µM
- TGI (SK-MEL-2 melanoma): > 82.9 µM

Structure (SMILES): CCCCCc1c(Cl)nc(Cl)nc1Cl
- TGI (HOP-92 NSCLC): 15.3 µM
- TGI (A498 renal): 34.7 µM
- TGI (HCC-2998 colon): 27 µM
- TGI (SK-MEL-28 melanoma): 46.5 µM
- TGI (NCI/ADR-RES ovarian): 46.3 µM
- TGI (PC-3 prostate): 36.9 µM
- TGI (HT29 colon): 18.5 µM
- TGI (KM12 colon): 28.6 µM
- TGI (MALME-3M melanoma): 28.1 µM
- TGI (NCI-H522 lung): 6.61 µM
- TGI (786-0 renal): 12.8 µM
- TGI (MDA-MB-231 breast): 17.8 µM
- TGI (MOLT-4 leukemia): 1.01 µM
- TGI (DU-145 prostate): 45.5 µM
- TGI (MCF7 breast): 27.3 µM
- TGI (IGROV1 ovarian): 31.9 µM
- TGI (RXF 393 renal): 23.7 µM
- TGI (OVCAR-5 ovarian): 31.1 µM
- TGI (HOP-62 NSCLC): 39.7 µM
- TGI (SF-295 CNS): 53.7 µM
- TGI (UACC-62 melanoma): 43.3 µM
- TGI (MDA-MB-435): 6.98 µM
- TGI (RPMI-8226 leukemia): 12.3 µM
- TGI (HL-60(TB) leukemia): 5.93 µM
- TGI (LOX IMVI melanoma): 6.01 µM
- TGI (SF-539 CNS): 29.9 µM
- TGI (TK-10 renal): 32.2 µM
- TGI (COLO 205 colon): 27 µM
- TGI (U251 CNS): 25.1 µM
- TGI (SW-620 colon): 26.2 µM
- TGI (NCI-H23 lung): 16 µM
- TGI (SK-OV-3 ovarian): 31.8 µM
- TGI (HCT-116 colon): 14.1 µM
- TGI (OVCAR-8 ovarian): 25.9 µM
- TGI (OVCAR-4 ovarian): 43 µM
- TGI (ACHN renal): 77.7 µM
- TGI (K-562 leukemia): 7.45 µM
- TGI (NCI-H226 lung): 6.02 µM
- TGI (UO-31 renal): 37.9 µM
- TGI (OVCAR-3 ovarian): 30.8 µM
- TGI (MDA-N): 16.6 µM
- TGI (EKVX NSCLC): 52 µM
- TGI (CAKI-1 renal): 8.6 µM
- TGI (CCRF-CEM leukemia): 0.65 µM
- TGI (NCI-H460 lung): 51.9 µM
- TGI (SN12C renal): 10.8 µM
- TGI (M14 melanoma): 5.46 µM
- TGI (A549 NSCLC): > 92.3 µM
- TGI (UACC-257 melanoma): 29.7 µM
- TGI (SNB-75 CNS): 93.1 µM
- TGI (SR leukemia): 0.86 µM
- TGI (SF-268 CNS): 49.2 µM
- TGI (HS 578T breast): > 100 µM
- TGI (HCT-15 colon): 29.9 µM
- TGI (SK-MEL-5 melanoma): 18.1 µM
- TGI (T-47D breast): 52.2 µM
- TGI (SNB-19 CNS): 38.9 µM
